Laboratory results from patent US4594319A, “Protein kinase enzyme AUT-PK 500 and a radioimmunoassay for detection of neoplasia” (The University of Tennessee Research Corp., priority 1984, dated 1986).
Blank lines part the entries; values can stand above or below the molecule they belong to.

Tests used:
AUT-PK 500 [1] = assay: Protein kinase assay: autophosphorylation of AUT-PK 500 (32P incorporation from [gamma-32P] ATP); type: biochemical, rat; settings: for effect on the AUT-PK 500 activity: monovalent cations, concentrations of up to 100 mM; for effect on the autophosphorylation of AUT-PK 500: filter assay or radioautography of SDS gel; for ^32 P Incorporated (autophosphorylation of AUT-PK 500): 1 microgram enzyme; for concentration giving peak activity of the enzyme / maximal activation, relative to that obtained by Mn^2+ or Mg^2+ / EC50: divalent cations; for EC50: read-out: concentration resulting in half-maximal stimulation of AUT-PK 500; for influence of sulfhydryl group inhibitors on AUT-PK 500 activity: see Table IV
Method: ATP into an appropriate substrate. […] ATP (400-600 cpm/pmol) and an appropriate amount of the enzyme. The reaction was incubated at 37° C. for one minute or as specified under experimental conditions, and was terminated by the addition of 2 ml of ice-cold 10% trichloroacetic acid followed by the addition of 500 micrograms of bovine serum albumin. The precipitate was immediately filtered on a GF/C filter and washed three times with 2 ml of ice-cold 10% trichloroacetic acid. The filter was dried and counted in a cocktail of Omnifluor in toluene. […]
Autophosphorylation of AUT-PK 500 was also analyzed by one-dimensional SDS-polyacrylamide gel electrophoresis. […] ATP. […] The phosphorylated sample was applied to 6% acrylamide containing 0.1% SDS and 0.3% Bis. Electrophoresis was conducted in the presence of Tris-glycine buffer, pH 8.3.

AUT-PK 500 [2] = assay: Phosphorylation of exogenous substrates by AUT-PK 500; type: biochemical, rat
Method: Protein kinase activity was measured by the incorporation of ^32 P from [gamma-^32 P] ATP into an appropriate substrate. The 250-microliter reaction mixture contained 20 mM Tris-HCl, pH 7.5, 10 mM Mg^2+, 2.5×10^-6 M [gamma-^32 P] ATP (400-600 cpm/pmol) and an appropriate amount of the enzyme. The reaction was incubated at 37° C. for one minute or as specified under experimental conditions, and was terminated by the addition of 2 ml of ice-cold 10% trichloroacetic acid followed by the addition of 500 micrograms of bovine serum albumin. The precipitate was immediately filtered on a GF/C filter and washed three times with 2 ml of ice-cold 10% trichloroacetic acid. The filter was dried and counted in a cocktail of Omnifluor in toluene.
Most of the known cyclic nucleotide-dependent or -independent protein kinases catalyze the phosphorylation of one or more of the commonly used exogenous substrates such as histone, casein, protamine, and phosvitin. […] In order to confirm this conclusion, AUT-PK 500 was incubated with [gamma-^32 P] ATP and histone in the presence or absence of cyclic AMP, then subjected to SDS-polyacrylamide gel electrophoresis and analyzed by radioautography.

[3] = Table IV, -SH group inhibitor 5 mM, enzyme alone 18,500 cpm
[4] = concentrations of up to 200 micrograms/ml
[5] = Table II, addition 10 micrograms, enzyme alone 16,000 cpm

Molecule: Calmodulin
- ^32 P Incorporated (autophosphorylation of AUT-PK 500) (AUT-PK 500 [1]; Table III, 100 microgram/ml, enzyme alone 18,500 cpm): 17,400 cpm

Molecule: O=C(O)CN(CCOCCOCCN(CC(=O)O)CC(=O)O)CC(=O)O [EGTA, 1,2-di(2-aminoethoxy)ethane-N,N,N',N'-tetraacetic acid]
- inhibition of AUT-PK 500 activity (AUT-PK 500 [1]; EGTA (Table III, 0.8 mM), explained by partial chelation of Mg^2+): 23.2%
- ^32 P Incorporated (autophosphorylation of AUT-PK 500) (AUT-PK 500 [1]; Table III, 0.8 mM, enzyme alone 18,500 cpm): 14,200 cpm

Molecule: [Co+2] [Co^2+]
- concentration giving peak activity of the enzyme (AUT-PK 500 [1]): 5 mM
- maximal activation, relative to that obtained by Mn^2+ or Mg^2+ (AUT-PK 500 [1]): 40%
- EC50 (AUT-PK 500 [1]): 2500 µM

Molecule: CCN1C(=O)C=CC1=O [N--Ethylmaleimide, N-ethylmaleimide]
- ^32 P Incorporated (autophosphorylation of AUT-PK 500) (AUT-PK 500 [1]; [3]): 18,000 cpm
- influence of sulfhydryl group inhibitors on AUT-PK 500 activity (AUT-PK 500 [1]): did not influence

Molecule: [Ca+2] [Ca^2+]
- ^32 P Incorporated (autophosphorylation of AUT-PK 500) (AUT-PK 500 [1]; Table III, 0.4 mM, enzyme alone 18,500 cpm): 17,000 cpm
- effect on AUT-PK 500 activity (AUT-PK 500 [1]; calcium or calcium-calmodulin, Table III): not affected
- concentration giving peak activity of the enzyme (AUT-PK 500 [1]): 20 mM
- maximal activation, relative to that obtained by Mn^2+ or Mg^2+ (AUT-PK 500 [1]): 60%

Molecule: NC(=O)CI [Iodoacetamide]
- ^32 P Incorporated (autophosphorylation of AUT-PK 500) (AUT-PK 500 [1]; [3]): 18,600 cpm

Molecule: polylysine
- effect on the autophosphorylation of AUT-PK 500 (AUT-PK 500 [1]; [4]): No effect

Molecule: Nc1nc2c(ncn2[C@@H]2O[C@H](COP(=O)(O)OP(=O)(O)OP(=O)(O)O)[C@@H](O)[C@H]2O)c(=O)[nH]1 [GTP]
- effect on the ATP-dependent rate of self-phosphorylation (AUT-PK 500 [1]): did not affect
- incorporation of radioactivity with [gamma-^32 P] GTP as phosphate donor (AUT-PK 500 [1]; GTP in place of ATP): no incorporation of radioactivity was observed

Molecule: lithium
- effect on the AUT-PK 500 activity (AUT-PK 500 [1]): no significant effect

Molecule: O=S(=O)(O)c1cc[c]([Hg][Cl])cc1 [p-chloromercuriphenylsulfonic acid]
- ^32 P Incorporated (autophosphorylation of AUT-PK 500) (AUT-PK 500 [1]; [3]): 18,300 cpm
- influence of sulfhydryl group inhibitors on AUT-PK 500 activity (AUT-PK 500 [1]): did not influence

Molecule: Casein
- effect of exogenous substrate proteins on the phosphorylation of AUT-PK 500 (AUT-PK 500 [1]; Table II): None of these proteins affected the phosphorylation
- ^32 P Incorporated (autophosphorylation of AUT-PK 500) (AUT-PK 500 [1]; [5]): 10,000 cpm
- phosphorylation of the substrate by AUT-PK 500 (AUT-PK 500 [2]): did not phosphorylate

Molecule: Nc1nc2c(ncn2[C@@H]2O[C@@H]3COP(=O)(O)O[C@H]3[C@H]2O)c(=O)[nH]1 [Cyclic GMP]
- dependence of AUT-PK 500 activity on cyclic nucleotides / blockage by heat-stable inhibitor (AUT-PK 500 [1]): independent
- ^32 P Incorporated (autophosphorylation of AUT-PK 500) (AUT-PK 500 [1]; Table II, cyclic nucleotide 1 microM, enzyme alone 16,000 cpm): 16,300 cpm

Molecule: [Mg+2] [Mg^2+]
- concentration giving peak activity of the enzyme (AUT-PK 500 [1]): 10 mM
- EC50 (AUT-PK 500 [1]): 2500 µM

Second part, led by results:

- effect on the AUT-PK 500 activity (AUT-PK 500 [1]): no significant effect
Molecule: [K+] [potassium]

- effect on the autophosphorylation of AUT-PK 500 (AUT-PK 500 [1]; polyamines each at 1 mM): No effect
Molecule: NCCCNCCCCNCCCN [spermine]

- concentration giving peak activity of the enzyme (AUT-PK 500 [1]): 5 mM
- EC50 (AUT-PK 500 [1]): 2500 µM
Molecule: [Mn+2] [Mn^2+]

- effect on the autophosphorylation of AUT-PK 500 (AUT-PK 500 [1]; polyamines each at 1 mM): No effect
Molecule: NCCCCN [putrescine]

- concentration giving peak activity of the enzyme (AUT-PK 500 [1]): 50 mM
- maximal activation, relative to that obtained by Mn^2+ or Mg^2+ (AUT-PK 500 [1]): of the same order
- EC50 (AUT-PK 500 [1]): 2500 µM
Molecule: [Sr+2] [Sr^2+]

- effect on the AUT-PK 500 activity (AUT-PK 500 [1]): no significant effect
Molecule: [Na+] [sodium]

- effect on the autophosphorylation of AUT-PK 500 (AUT-PK 500 [1]; [4]): No effect
Molecule: polyarginine

- effect on the autophosphorylation of AUT-PK 500 (AUT-PK 500 [1]; polyamines each at 1 mM): No effect
Molecule: NCCCCNCCCN [spermidine]

- ^32 P Incorporated (autophosphorylation of AUT-PK 500) (AUT-PK 500 [1]; [5]): 12,000 cpm
Molecule: Protamine
- effect of exogenous substrate proteins on the phosphorylation of AUT-PK 500 (AUT-PK 500 [1]; Table II): None of these proteins affected the phosphorylation
